Test results from US8658800B2 (priority 2010, dated 2014).
Read-outs that look alike come from different tables or passages of the source.

Assays:
[1] = logP by HPLC on reversed-phase columns (C 18), EEC Directive 79/831 Annex V.A8; format: physicochemical
Protocol: The logP values reported in the table above and in the Preparation Examples were determined in accordance with EEC Directive 79/831 Annex V.A8 by HPLC (High Performance Liquid Chromatography) on reversed-phase columns (C 18), with the following methods:
The LC-MS determination in the acidic range is carried out at pH 2.7 using the mobile phases 0.1% aqueous formic acid and acetonitrile (contains 0.1% formic acid), linear gradient from 10% acetonitrile to 95% acetonitrile
Calibration was carried out using unbranched alkan-2-ones (having from 3 to 16 carbon atoms) with known logP values (the logP values were determined by the retention times using linear interpolation between two successive alkanones).

[2] = test system: green peach aphid (Myzus persicae); experiment: Myzus test (MYZUPE spray treatment); format: in vivo; conditions: 144 h, sprayed Chinese cabbage discs, after 6 days, read-out: activity (kill of aphids)
Protocol: Myzus Test (MYZUPE Spray Treatment)
Solvents: 78 parts by weight of acetone
(§1) • 1.5 parts by weight of dimethylformamide Emulsifier: 0.5 part by weight of alkylaryl polyglycol ether
(§2) To produce a suitable preparation of active compound, 1 part by weight of active compound is mixed with the stated amount of solvents and emulsifier, and the concentrate is diluted with emulsifier-containing water to the desired concentration.
Discs of Chinese cabbage (Brassica pekinensis) infested by all stages of the green peach aphid (Myzus persicae) are sprayed with an active compound preparation of the desired concentration.
After 6 days, the effect in % is determined. 100% means that all of the aphids have been killed; 0% means that none of the aphids have been killed.

[3] = test system: larvae of the mustard beetle (Phaedon cochleariae); experiment: Phaedon test (PHAECO spray treatment); format: in vivo; conditions: 168 h, read-out: activity (kill of beetle larvae)
Protocol: Phaedon Test ([…] Spray Treatment) Solvents: 78.0 parts by weight of acetone • • 1.5 parts by weight of dimethylformamide Emulsifier: 0.5 part by weight of alkylaryl polyglycol ether To produce a suitable preparation of active compound, 1 part by weight of active compound is mixed with the stated amount of solvents and emulsifier, and the concentrate is diluted with emulsifier-containing water to the desired concentration. Discs of Chinese cabbage (Brassica pekinensis) are sprayed with an active compound preparation of the desired concentration and, after drying, populated with larvae of the mustard beetle (Phaedon cochleariae).

[4] = test system: caterpillars of the armyworm (Spodoptera frugiperda); experiment: Spodoptera frugiperda test (SPODFR spray treatment); format: in vivo; conditions: foliar, 168 h, read-out: activity (kill of caterpillars)
Protocol: Spodoptera frugiperda Test (SPODFR Spray Treatment)
Solvents: 78.0 parts by weight of acetone
as §1, §2
Discs of maize leaves (Zea mays) are sprayed with an active compound preparation of the desired concentration and, after drying, populated with caterpillars of the armyworm (Spodoptera frugiperda).
After 7 days, the effect in % is determined. 100% means that all caterpillars have been killed; 0% means that none of the caterpillars have been killed.

[5] = test system: Lucilia cuprina larvae; experiment: Lucilia cuprina test (LUCICU); format: in vivo; conditions: 100 ppm, treated horse meat, after 2 days
Protocol: Lucilia cuprina Test (LUCICU)
(§3) Solvent: dimethyl sulphoxide
(§4) To produce a suitable preparation of active compound, 10 mg of active compound are mixed with 0.5 ml of dimethyl sulphoxide and the concentrate is diluted with water to the desired concentration.
Vessels containing horse meat treated with the active compound of the desired concentration are populated with about 20 Lucilia cuprina larvae.
After 2 days, the kill in % is determined 100% means that all of the larvae have been killed; 0% means that none of the larvae have been killed.

[6] = test system: adult Musca domestica; experiment: Musca domestica test (MUSCDO); format: in vivo; conditions: 100 ppm, treated sponge, after 2 days
Protocol: Musca domestica Test (MUSCDO)
as §3, §4
Vessels containing a sponge treated with the active compound preparation of the desired concentration are populated with adult Musca domestica.
After 2 days, the kill in % is determined 100% means that all of the flies have been killed; 0% means that none of the flies have been killed.

[7] = HPLC, reversed-phase C 18, acidic range pH 2.7, 0.1% aqueous formic acid/acetonitrile, read-out: log P
[8] = 100 g/ha, sprayed Chinese cabbage discs, after 7 days
[9] = 100 g/ha, sprayed maize leaf discs, after 7 days
[10] = reversed-phase C18 HPLC column, HPLC, reversed-phase C 18, acidic range pH 2.7, 0.1% aqueous formic acid/acetonitrile, read-out: log P

| chromatographic logP [1, 10] | Compound | pest or weed control at 100 g/ha [3, 8] [%] | pest or weed control at 100 g/ha [4, 9] [%] | other results |
| --- | --- | --- | --- | --- |
|  | Cc1cc(Br)cc(OC(F)F)c1N |  |  | chromatographic logP [1, 7]: 2.84 |
|  | Cc1cc(C#N)cc(OC(F)F)c1N |  |  | chromatographic logP [1, 7]: 1.9 |
|  | Cc1cccc(C(=O)NS(C)(=O)=O)c1N |  |  | chromatographic logP [1, 7]: 1.1 |
|  | Cc1cc(Cl)cc(C(=O)NS(=O)(=O)N(C)C)c1NC(=O)c1cc(Cn2cc(C(F)(F)C(F)(F)F)cn2)nn1-c1ncccc1Cl [Compound 1] |  |  | chromatographic logP ([1]; pH 2.7): 3.35 |
| 3.69 | Cc1cc(I)cc(C(=O)O)c1NC(=O)c1cc(Cn2nnc(C(F)(F)C(F)(F)F)n2)nn1-c1ncccc1Br [Compound 2] | 100 | 100 | pest or weed control at 100 g/ha [2]: 80% |
| 3.16 | Cc1cc(F)cc(C(=O)O)c1NC(=O)c1cc(Cn2nnc(C(F)(F)C(F)(F)F)n2)nn1-c1ncccc1Br [Compound 3] |  | 100 |  |
| 3.39 | Cc1cc(I)cc(C(=O)NS(C)(=O)=O)c1NC(=O)c1cc(Cn2nnc(C(F)(F)C(F)(F)F)n2)nn1-c1ncccc1Br [Compound 4] |  |  |  |
|  | Cc1cccc(C(=O)NS(C)(=O)=O)c1NC(=O)c1cc(Cn2nnc(C(F)(F)F)n2)nn1-c1ncccc1Cl [Compound 5] |  |  | pest or weed control at 100 g/ha ([4]; in Zea mays): 100%; chromatographic logP ([1]; pH 2.7): 2.47 |
| 3.77 | Cc1cc(Br)cc(OC(F)F)c1NC(=O)c1cc(Cn2nnc(C(F)(F)F)n2)nn1-c1ncccc1Cl [Compound 8] | 100 | 100 | efficacy (kill) [5]: 100% |
| 2.85 | Cc1cc(C#N)cc(OC(F)F)c1NC(=O)c1cc(Cn2nnc(C(F)(F)F)n2)nn1-c1ncccc1Cl [Compound 9] | 100 | 100 | pest or weed control at 100 g/ha [2]: 90%; efficacy (kill) [5]: 100%; efficacy (kill) [6]: 80% |
| 4 | Cc1cc(Cl)cc(OC(F)(F)F)c1NC(=O)c1cc(Cn2nnc(C(F)(F)F)n2)nn1-c1ncccc1Cl [Compound 10] |  | 100 |  |
| 4.57 | COC(=O)c1cc(I)cc(C)c1NC(=O)c1cc(Cn2nc(C(F)(F)F)cc2C(F)(F)F)nn1-c1ncccc1Cl [Compound 11] |  |  |  |
| 2.2 | O=C(O)c1cc(Cl)cc(Cl)c1NC(=O)c1cc(Cn2cnc(C(F)F)n2)nn1-c1ncccc1Cl [Compound 12] |  |  | efficacy (kill) [5]: 90%; pest or weed control at 500 g/ha ([3]; 500 g/ha, sprayed Chinese cabbage discs, after 7 days): 100%; pest or weed control at 500 g/ha ([4]; 500 g/ha, sprayed maize leaf discs, after 7 days): 100% |
| 3.36 | Cc1cc(C#N)cc(C(=O)O)c1NC(=O)c1cc(Cn2nnc(C(F)(C(F)(F)F)C(F)(F)F)n2)nn1-c1ncccc1Cl [Compound 13] | 100 | 100 | pest or weed control at 100 g/ha [2]: 80% |
| 2.65 | Cc1cc(C#N)cc(C(=O)O)c1NC(=O)c1cc(Cn2nnc(C(F)(F)F)n2)nn1-c1ncccc1Cl [Compound 14] |  | 100 | pest or weed control at 100 g/ha [2]: 80% |
|  | O=C(O)c1cc(Cl)cc(Cl)c1NC(=O)c1cc(Cn2nc(C(F)(F)C(F)(F)C(F)(F)F)cc2C(F)(F)F)nn1-c1ncccc1Cl [Compound 15] |  |  | pest or weed control at 100 g/ha ([3]; in Brassica rapa): 83%; chromatographic logP [1, 7]: 4.4 |
| 2.63 | Cc1cc(C#N)cc(C(=O)O)c1NC(=O)c1cc(Cn2cnc(C(F)(F)F)c2C(F)(F)F)nn1-c1ncccc1Cl [Compound 16] | 100 |  |  |
| 3.16 | Cc1cc(Cl)cc(C(=O)O)c1NC(=O)c1cc(Cn2nc(C)c(Br)c2C)nn1-c1ncccc1Cl [Compound 17] |  |  |  |

| chromatographic logP [1, 10] | Compound | pest or weed control at 100 g/ha [3, 8] [%] | pest or weed control at 100 g/ha [4, 9] [%] | other results |
| --- | --- | --- | --- | --- |
| 2.62 | Cc1cc(C#N)cc(C(=O)O)c1NC(=O)c1cc(Cn2nc(C(F)F)cc2C(F)F)nn1-c1ncccc1Cl [Compound 18] |  |  |  |
| 2.68 | Cc1nc(C(F)(F)F)nn1Cc1cc(C(=O)Nc2c(Cl)cc(Cl)cc2C(=O)O)n(-c2ncccc2Cl)n1 [Compound 19] |  |  | pest or weed control at 100 g/ha [2]: 80% |
| 2.75 | Cc1cc(F)cc(C(=O)O)c1NC(=O)c1cc(Cn2nnc(C(F)(F)F)n2)nn1-c1ncccc1Cl [Compound 20] |  |  |  |
| 3.04 | O=C(O)c1cc(Cl)cc(Cl)c1NC(=O)c1cc(Cn2nnc(C(F)(F)F)n2)nn1-c1ncccc1Cl [Compound 21] | 100 | 83 |  |
| 3.44 | Cc1cc(Cl)cc(C(=O)O)c1NC(=O)c1cc(Cn2nnc(C(F)(F)C(F)(F)F)n2)nn1-c1ncccc1Cl [Compound 22] | 100 |  |  |
| 3.37 | O=C(O)c1cc(Cl)cc(Cl)c1NC(=O)c1cc(Cn2nnc(C(F)(F)C(F)(F)F)n2)nn1-c1ncccc1Cl [Compound 23] | 100 |  |  |
| 2.55 | O=C(O)c1cc(Cl)cc(Cl)c1NC(=O)c1cc(Cn2nnc(C(F)F)n2)nn1-c1ncccc1Cl [Compound 25] |  |  |  |
| 3.03 | O=C(O)c1cc(Cl)cc(Cl)c1NC(=O)c1cc(Cn2ncc(C(F)(F)F)n2)nn1-c1ncccc1Cl [Compound 26] | 100 | 100 | pest or weed control at 100 g/ha [2]: 90% |
| 3.26 | Cc1cc(I)cc(C(=O)O)c1NC(=O)c1cc(Cn2ncc(C(F)(F)F)n2)nn1-c1ncccc1Cl [Compound 27] |  | 83 |  |
| 2.69 | O=C(O)c1cc(Cl)cc(Cl)c1NC(=O)c1cc(Cn2cc(C(F)(F)F)nn2)nn1-c1ncccc1Cl [Compound 28] | 100 |  | pest or weed control at 100 g/ha [2]: 100% |
| 3.33 | COC(=O)c1cc(F)cc(C)c1NC(=O)c1cc(Cn2nnc(C(F)(F)F)n2)nn1-c1ncccc1Cl [Compound 29] | 83 | 100 |  |
| 3.05 | Cc1cc(Cl)cc(C(=O)O)c1NC(=O)c1cc(Cn2nnc(C(F)(F)F)n2)nn1-c1ncccc1Cl [Compound 30] |  | 83 | pest or weed control at 100 g/ha [2]: 80% |
| 3.75 | Cc1cc(C#N)cc(C(=S)NC(C)(C)C)c1NC(=O)c1cc(Cn2nnc(C(F)(F)F)n2)nn1-c1ncccc1Cl [Compound 31] | 100 | 83 | pest or weed control at 100 g/ha [2]: 90% |
| 2.56 | Cc1cccc(S(N)(=O)=O)c1NC(=O)c1cc(Cn2nnc(C(F)(F)F)n2)nn1-c1ncccc1Cl [Compound 32] |  |  |  |
| 2.9 | CNS(=O)(=O)c1cccc(C)c1NC(=O)c1cc(Cn2nnc(C(F)(F)F)n2)nn1-c1ncccc1Cl [Compound 33] |  |  |  |
| 3.35 | CCC(=O)c1cccc(C)c1NC(=O)c1cc(Cn2nnc(C(F)(F)F)n2)nn1-c1ncccc1Cl [Compound 34] |  |  |  |
| 3.33 | Cc1cccc(C(=O)C2CC2)c1NC(=O)c1cc(Cn2nnc(C(F)(F)F)n2)nn1-c1ncccc1Cl [Compound 35] |  | 100 |  |
| 3.73 | CNC(=S)c1cc(I)cc(C)c1NC(=O)c1cc(Cn2nnc(C(F)(F)F)n2)nn1-c1ncccc1Cl [Compound 36] | 100 | 100 | pest or weed control at 100 g/ha [2]: 100% |
